According to patent publication US20060069132A1, “Azolecarboxamide herbicides” (priority 2004, published 2006):

Experiments:
barnyardgrass [1] = experiment: Test B pre-/postemergence herbicide test; type: in vivo, Echinochloa crus-galli; conditions: for Barnyardgrass plant response rating: postemergence
How it was run: (§1)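 Species tested were Echinochloa crus-galli, Ipomoea coccinea, Xanthium strumarium and Oryza sativa, treated both before emergence and at the 1- to 4-leaf stage; rice and barnyardgrass were also tested under flooding at 2 leaves. Greenhouse incubation lasted 13–15 days before visual 0–100 scoring.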

Surinam grass = experiment: Test B pre-/postemergence herbicide test; type: in vivo, Urochloa decumbens; conditions: for Surinam Grass plant response rating: postemergence
How it was run: (§2)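 Response was scored visually 13 to 15 days after treatment against untreated greenhouse controls, 0 meaning no effect and 100 complete control. Formulations (solvent mixture plus surfactant) went onto soil after planting, onto foliage of 1- to 4-leaf plants, and onto 2-leaf plants in a flooded paddy set including rice and barnyardgrass.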

cocklebur = experiment: Test B pre-/postemergence herbicide test; type: in vivo, Xanthium strumarium; conditions: for Cocklebur plant response rating: postemergence
How it was run: as §1

corn = experiment: Test B pre-/postemergence herbicide test; type: in vivo, Zea mays; conditions: for Corn plant response rating: postemergence
How it was run: as §2

large crabgrass = experiment: Test B pre-/postemergence herbicide test; type: in vivo, Digitaria sanguinalis; conditions: for Crabgrass, Large plant response rating: postemergence
How it was run: as §2

giant foxtail = experiment: Test B pre-/postemergence herbicide test; type: in vivo, Setaria faberi; conditions: for Foxtail, Giant plant response rating: postemergence
How it was run: as §2

lambsquarters = experiment: Test B pre-/postemergence herbicide test; type: in vivo, Chenopodium album; conditions: for Lambsquarters plant response rating: postemergence
How it was run: as §2

morningglory = experiment: Test B pre-/postemergence herbicide test; type: in vivo, Ipomoea coccinea; conditions: for Morningglory plant response rating: postemergence
How it was run: as §1

pigweed = experiment: Test B pre-/postemergence herbicide test; type: in vivo, Amaranthus retroflexus; conditions: for Pigweed plant response rating: postemergence
How it was run: as §2

rice [2] = experiment: Test B pre-/postemergence herbicide test; type: in vivo, Oryza sativa; conditions: 0 = no effect, 100 = complete control, preemergence
How it was run: as §2

velvetleaf = experiment: Test B pre-/postemergence herbicide test; type: in vivo, Abutilon theophrasti; conditions: for Velvetleaf plant response rating: postemergence
How it was run: as §2

blackgrass = experiment: Test B postemergence herbicide test; type: in vivo, Alopecurus myosuroides; conditions: postemergence
How it was run: (§3)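 Plants grow to 1- to 4-leaf stage (2–18 cm) for postemergence spraying, or to 2-leaf stage for the paddy test. Formulated compound is applied. Greenhouse holding lasts 13–15 days. Response is scored visually relative to controls, 0 no effect to 100 complete control; a dash means no result.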

wheat = experiment: Test B postemergence herbicide test; type: in vivo, Triticum aestivum; parameters: key to Wheat plant response rating: 0 = no effect, 100 = complete control; conditions: postemergence
How it was run: (§4)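 Formulated test chemicals went onto postemergence plants measuring 2 to 18 cm, at one to four leaves. For the paddy assay, species had reached two leaves. Scoring took place 13–15 days later by eye, relative to untreated plants, using 0 for no effect up to 100 for full control.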

wild oat = experiment: Test B postemergence herbicide test; type: in vivo, Avena fatua; conditions: postemergence
How it was run: as §4

rice [3] = experiment: Test B flooded paddy test; type: in vivo, Oryza sativa; conditions: 1000 g ai/ha, scale 0 to 100 (0 no effect, 100 complete control)
How it was run: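 Postemergence plants were sprayed with formulated test chemicals at 2 to 18 cm height (1- to 4-leaf stage); paddy species were grown to the 2-leaf stage. After 13 to 15 days in a greenhouse, injury was rated visually against untreated controls on a 0–100 scale (0 = no effect, 100 = complete control).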

[4] = system: small flower umbrella sedge; experiment: Test B flooded paddy test; type: in vivo, Cyperus difformis; conditions: 1000 g ai/ha, scale 0 to 100 (0 no effect, 100 complete control)
How it was run: as §3

ducksalad [5] = experiment: Test B flooded paddy test; type: in vivo, Heteranthera limosa; conditions: 1000 g ai/ha, scale 0 to 100 (0 no effect, 100 complete control)
How it was run: as §3

barnyardgrass [6] = experiment: Test B flooded paddy test; type: in vivo, Echinochloa crus-galli; conditions: 1000 g ai/ha, scale 0 to 100 (0 no effect, 100 complete control)
How it was run: as §3

rice [7] = experiment: Test C flooded paddy test; type: in vivo, Oryza sativa
How it was run: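 Plants were grown to the 1- to 4-leaf stage (2–18 cm) and then treated postemergence, or grown to the 2-leaf stage for the flooded paddy test. They were held in a greenhouse for 12 to 14 days and then scored by eye against controls, where 0 is no effect and 100 is complete control.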

[8] = system: smallflower umbrella sedge; experiment: Test C flooded paddy test; type: in vivo, Cyperus difformis
ducksalad [9] = experiment: Test C flooded paddy test; type: in vivo, Heteranthera limosa
barnyardgrass [10] = experiment: Test C flooded paddy test; type: in vivo, Echinochloa crus-galli
How it was run: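 Greenhouse test with a 12–14 day hold after application and visual comparison with controls. Emerged plants were 1- to 4-leaf stage (2–18 cm) when sprayed postemergence, and the paddy barnyardgrass was at 2 leaves under flooded conditions. 100 = complete control.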

[11] = 125 g ai/ha, 0 = no effect, 100 = complete control, preemergence
[12] = 125 g ai/ha, visual rating, scale 0 (no effect) to 100 (complete control)
[13] = 500 g ai/ha, visual rating, 0 = no effect, 100 = complete control, preemergence
[14] = 500 g ai/ha, scale 0 to 100, 0 is no effect, 100 is complete control
[15] = 125 g ai/ha, scale 0 to 100 (0 no effect, 100 complete control)
[16] = 250 g ai/ha, scale of 0 to 100, 0 is no effect, 100 is complete control
[17] = 500 g ai/ha, visual rating after 12 to 14 days, scale 0 to 100 (0 no effect, 100 complete control)

## C#CCNC(=O)c1ccc(F)c(NC(=O)c2cc(C3(C)CC3)nn2CC)c1 [Compound 302]
Barnyardgrass [1]; [11]
  Barnyardgrass plant response rating (0 to 100 scale): 0
Barnyardgrass [1]; [12]
  Barnyardgrass plant response rating: 10
Barnyardgrass [1]; [13]
  Plant response rating, Barnyardgrass: 60
Barnyardgrass [1]; [14]
  Barnyardgrass plant response rating: 40
Surinam grass; [11]
  Surinam Grass plant response rating (0 to 100 scale): 10
Surinam grass; [12]
  Surinam Grass plant response rating: 0
Surinam grass; [13]
  Plant response rating, Surinam Grass: 30
Surinam grass; [14]
  Surinam Grass plant response rating: 10
cocklebur; [11]
  Cocklebur plant response rating (0 to 100 scale): 0
cocklebur; [12]
  Cocklebur plant response rating: 10
cocklebur; [13]
  Plant response rating, Cocklebur: 0
cocklebur; [14]
  Cocklebur plant response rating: 10
corn; [11]
  Corn plant response rating (0 to 100 scale): 0
corn; [12]
  Corn plant response rating: 10
corn; [13]
  Plant response rating, Corn: 10
corn; [14]
  Corn plant response rating: 50
Large crabgrass; [11]
  Crabgrass, Large plant response rating (0 to 100 scale): 70
Large crabgrass; [12]
  Crabgrass, Large plant response rating: 0
Large crabgrass; [13]
  Plant response rating, Crabgrass, Large: 100
Large crabgrass; [14]
  Crabgrass, Large plant response rating: 10
Giant foxtail; [11]
  Foxtail, Giant plant response rating (0 to 100 scale): 0
Giant foxtail; [12]
  Foxtail, Giant plant response rating: 0
Giant foxtail; [13]
  Plant response rating, Foxtail, Giant: 30
Giant foxtail; [14]
  Foxtail, Giant plant response rating: 20
lambsquarters; [11]
  Lambsquarters plant response rating (0 to 100 scale): 0
lambsquarters; [12]
  Lambsquarters plant response rating: 60
lambsquarters; [13]
  Plant response rating, Lambsquarters: 100
lambsquarters; [14]
  Lambsquarters plant response rating: 70
morningglory; [11]
  Morningglory plant response rating (0 to 100 scale): 0
morningglory; [12]
  Morningglory plant response rating: 30
morningglory; [13]
  Plant response rating, Morningglory: 10
morningglory; [14]
  Morningglory plant response rating: 60
pigweed; [11]
  Pigweed plant response rating (0 to 100 scale): 100
pigweed; [12]
  Pigweed plant response rating: 80
pigweed; [13]
  Plant response rating, Pigweed: 100
pigweed; [14]
  Pigweed plant response rating: 90
Rice [2]; 125 g ai/ha
  Rice plant response rating (0 to 100 scale): 0
Rice [2]; 500 g ai/ha, visual rating
  Plant response rating, Rice: 10
velvetleaf; [12]
  Velvetleaf plant response rating: 10
velvetleaf; [13]
  Plant response rating, Velvetleaf: 80
velvetleaf; [14]
  Velvetleaf plant response rating: 10
blackgrass; [12]
  Blackgrass plant response rating: 10
blackgrass; [14]
  Blackgrass plant response rating: 20
wheat; [12]
  Wheat plant response rating: 0
wheat; [14]
  Wheat plant response rating: 10
Wild oat; [12]
  Oat, Wild plant response rating: 0
Wild oat; [14]
  Oat, Wild plant response rating: 10
Rice [3]
  Rice plant response rating: 70
[4]
  Sedge, Umbrella plant response rating: 80
Ducksalad [5]
  Ducksalad plant response rating: 90
Barnyardgrass [6]
  Barnyardgrass plant response rating: 70
Rice [7]; 62 g ai/ha, scale 0 to 100
  Rice plant response rating: 0
Rice [7]; [15]
  Rice plant response rating: 0
Rice [7]; [16]
  Rice plant response rating: 0
Rice [7]; [17]
  Plant response rating, Rice: 55
[8]; 62 g ai/ha, scale 0 to 100
  Sedge, Umbrella plant response rating: 15
[8]; [15]
  Sedge, Umbrella plant response rating: 50
[8]; [16]
  Sedge, Umbrella plant response rating: 75
[8]; [17]
  Plant response rating, Sedge, Umbrella: 85
Ducksalad [9]; 62 g ai/ha, scale 0 to 100
  Ducksalad plant response rating: 0
Ducksalad [9]; [15]
  Ducksalad plant response rating: 25
Ducksalad [9]; [16]
  Ducksalad plant response rating: 30
Ducksalad [9]; [17]
  Plant response rating, Ducksalad: 85
Barnyardgrass [10]; 62 g ai/ha, scale 0 to 100 (0 no effect, 100 complete control)
  Barnyardgrass plant response rating: 0
Barnyardgrass [10]; [15]
  Barnyardgrass plant response rating: 0
Barnyardgrass [10]; [16]
  Barnyardgrass plant response rating: 10
Barnyardgrass [10]; [17]
  Plant response rating, Barnyardgrass: 35
